Results from ChEMBL document CHEMBL1765046, “Small molecule inhibitor of the RPA70 N-terminal protein interaction domain discovered using in silico and in vitro methods” (Bioorg Med Chem, 2011).
Activity calls are given as the source filed them. The rule behind the calls is not given here.

How the values were obtained:
[1] = biological target: Replication protein A 70 kDa DNA-binding subunit (Homo sapiens) (UniProt P27694); test: Inhibition of recombinant human N-terminal domain of RPA70 DNA binding domain-F binding to 30-mer double strand DNA at <100 uM preincubated for 5mins before dsDNA addition measured after 30 mins by electrophoretic mobility shift assay
Replication protein A 70 kDa DNA-binding subunit (Homo sapiens), sequence (P27694 whole entry, the tested form may be a part): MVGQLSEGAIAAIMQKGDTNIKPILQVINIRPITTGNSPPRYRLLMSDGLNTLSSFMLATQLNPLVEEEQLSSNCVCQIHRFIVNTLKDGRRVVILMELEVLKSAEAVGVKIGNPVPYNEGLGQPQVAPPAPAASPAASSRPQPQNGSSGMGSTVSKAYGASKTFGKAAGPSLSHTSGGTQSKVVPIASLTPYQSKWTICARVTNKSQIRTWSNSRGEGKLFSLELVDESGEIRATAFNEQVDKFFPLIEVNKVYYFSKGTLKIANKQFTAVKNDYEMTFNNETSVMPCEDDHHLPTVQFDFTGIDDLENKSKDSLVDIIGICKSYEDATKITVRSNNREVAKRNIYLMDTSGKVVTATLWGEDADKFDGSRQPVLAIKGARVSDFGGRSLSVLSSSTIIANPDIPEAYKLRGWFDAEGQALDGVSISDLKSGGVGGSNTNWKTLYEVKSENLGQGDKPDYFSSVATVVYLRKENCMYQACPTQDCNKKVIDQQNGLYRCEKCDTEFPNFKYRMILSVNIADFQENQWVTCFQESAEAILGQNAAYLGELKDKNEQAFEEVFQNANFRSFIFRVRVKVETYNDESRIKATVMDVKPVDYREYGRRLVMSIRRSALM

[2] = biological target: Replication protein A 70 kDa DNA-binding subunit (Homo sapiens) (UniProt P27694); test: Inhibition of recombinant human N-terminal domain of RPA70 DNA binding domain-F binding to 30-mer single strand DNA at <100 uM preincubated for 5mins before ssDNA addition measured after 30 mins by electrophoretic mobility shift assay
[3] = biological target: Cellular tumor antigen p53/Replication protein A 70 kDa DNA-binding subunit (Homo sapiens, UniProt P04637+P27694); test: Inhibition of GST-tagged p53/recombinant human N-terminal domain of RPA70 DNA binding domain interaction by ELISA-like plate binding assay
Cellular tumor antigen p53/Replication protein A 70 kDa DNA-binding subunit, sequence (P04637 whole entry, the tested form may be a part): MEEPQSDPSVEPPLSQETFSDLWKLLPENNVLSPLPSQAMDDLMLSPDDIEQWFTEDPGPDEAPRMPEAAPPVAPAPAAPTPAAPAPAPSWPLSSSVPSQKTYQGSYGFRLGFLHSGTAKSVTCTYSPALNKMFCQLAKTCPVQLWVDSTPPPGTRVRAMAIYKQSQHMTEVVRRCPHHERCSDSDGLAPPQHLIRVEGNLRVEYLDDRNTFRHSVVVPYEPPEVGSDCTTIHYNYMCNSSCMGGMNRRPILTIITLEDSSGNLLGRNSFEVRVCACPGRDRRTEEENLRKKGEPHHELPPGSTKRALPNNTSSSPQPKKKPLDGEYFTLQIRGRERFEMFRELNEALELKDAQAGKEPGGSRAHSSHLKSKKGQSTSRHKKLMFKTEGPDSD
Cellular tumor antigen p53/Replication protein A 70 kDa DNA-binding subunit, sequence (P27694 whole entry, the tested form may be a part): as the sequence (P27694 whole entry, the tested form may be a part) above

- inhibition [1]: Active
- inhibition [2]: inactive
- IC50 [3]: 10 µM
Compound: CC(C)C1=CC23CCC4C(C)(C(=O)O)CCCC4(C)C2CC1C(C(=O)O)C3C(=O)O (stereo not drawn)
